From EP1219608A1, “PYRIMIDINE DERIVATIVES, PROCESS FOR PREPARING THE DERIVATIVES AND DRUGS CONTAINING THE SAME AS THE ACTIVE INGREDIENT” (ONO PHARMACEUTICAL CO., LTD., priority 1999, dated 2001) come the findings set out here.

The target of this test is T1, human sputum elastase (HSE) (Homo sapiens, UniProt P08246).
T1 construct: human sputum elastase (HSE); from tissue; host or cells: human sputum (from the enzyme's name only)
T1 sequence (P08246 30-247 limits assumed): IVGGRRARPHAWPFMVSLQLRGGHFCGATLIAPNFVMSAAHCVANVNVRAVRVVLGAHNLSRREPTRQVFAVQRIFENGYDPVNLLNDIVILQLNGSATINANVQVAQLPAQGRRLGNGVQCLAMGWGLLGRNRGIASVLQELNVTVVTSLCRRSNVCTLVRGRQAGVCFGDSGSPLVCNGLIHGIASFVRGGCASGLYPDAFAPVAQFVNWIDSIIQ
Put plainly: Inhibitory effects on human sputum elastase. The test is classed as biochemical. Conditions: pre-incubated at 37°C for 20 minutes; substrate MeO-Suc-Ala-Ala-Pro-Val-pNA, 37°C for 5 minutes; HEPES buffer (pH 8.0); pNA measured at 405 nm. As to the method: (1) Inhibitory effects on human sputum elastase
A mixture of 0.5 ml of 0.2 mM HEPES buffer (pH 8.0), 0.2 ml of 2.5 M aqueous solution of sodium chloride, 0.1 ml of 1% polyethyleneglycol 6000, 0.13 ml of distilled water, 0.01 ml of a solution of test compound in dimethylsulfoxide (DMSO) and 0.05 ml of 0.8 U/ml human sputum elastase (HSE) was pre-incubated at 37°C, for 20 minutes. 0.01 ml of 5 mM MeO-Suc-Ala-Ala-Pro-Val-pNA in DMSO was added to the above mixture and the mixture was incubated at 37°C for 5 minutes. The reaction was terminated by 0.1 ml of 50% acetic acid and then p-nitroanilide (pNA) released was measured spectrophotometrically at 405 nm. Percent inhibition of a compound was calculated by the following equation. Inhibition (%) = [1 - {delta OD (test-blank) / delta OD (control-blank)}] × 100 [formula]

Molecules are shown by their SMILES.

For orientation: IC50 means the concentration at which inhibition is half-maximal. For the molecule `CC(C)C(NC(=O)Cn1c(-c2ccccc2)ncc([N+](=O)[O-])c1=O)C(=O)c1nnc(C(C)(C)C)o1` (racemic) [Example 7(1), N-[(1RS)-1-(5-(t-butyl)-1,3,4-oxadiazol-2-ylcarbonyl)-2-methylpropyl]-2-[6-oxo-2-phenyl-5-nitro-1,6-dihydropyrimidin-1-yl]acetamide], the IC50 amounted to 88 nM.
